Read-outs that look alike come from different tables or passages of the source.
Tests used:
[1] = rcm bond, 22-membered ring
[2] = test system: human hepatoma Huh-7 cell line harboring a HCV replicon; experiment: HCV replicon assay (inhibition of viral replication, luciferase); format: cell-based; details: Hepatitis C virus; for EC50: Huh-7, 72 h; for inhibition at 1 µM: Huh-7, read-out: % inhibition at 1 μM
Procedure: The anti-HCV activity of the compounds of this invention was tested in a human hepatoma Huh-7 cell line harboring a HCV replicon. The assay comprised the following steps:
Step 1: Compound Preparation and Serial Dilution
Serial dilution was performed in 100% DMSO in a 384-well plate. A solution containing a compound at 225-fold concentration of the starting final serial dilution concentration was prepared in 100% DMSO and 15 uL added to the pre-specified wells in column 3 or 13 of a polypropylene 384-well plate. The rest of the 384-well plate was filled with 10 uL 100% DMSO except for columns 23 and 24, where 10 uL of 500 uM a HCV protease inhibitor (ITMN-191) in 100% DMSO was added. […] The plate was then placed on a Biomek FX Workstation to start the serial dilution. The serial dilution was performed for ten cycles of 3-fold dilution from column 3 to 12 or from column 13 to 22.
Step 2: Cell Culture Plate Preparation and Compound Addition
To each well of a black polypropylene 384-well plate, 90 μL of cell media containing 1600 suspended Huh-7 HCV replicon cells was added with a Biotek uFlow Workstation. A volume of 0.4 μL of the compound solution was transferred from the serial dilution plate to the cell culture plate on a Biomek FX Workstation. The DMSO concentration in the final assay condition was 0.44%. The plates were incubated for 3 days at 37° C. with 5% CO2 and 85% humidity.
Step 3: Detection of Cytotoxicity and Inhibition of Viral Replication
b) Assessment of inhibition of viral replication: The calcein-PBS solution in the 384-well cell culture plate was aspirated with a Biotek EL405 plate-washer. A volume of 20 μL of Dual-Glo luciferase buffer (Promega, Dual-Glo Luciferase Assay Reagent, cat. #E298B) was added to each well of the plate with a Biotek uFlow Workstation. The plate was incubated for 10 minutes at room temperature. A volume of 20 μL of a solution containing 1:100 mixture of Dual-Glo Stop & Glo substrate (Promega, Dual-Glo Luciferase Assay Reagent, cat. #E313B) and Dual-Glo Stop & Glo buffer (Promega, Dual-Glo Luciferase Assay Reagent, cat. #E314B) was then added to each well of the plate with a Biotek uFlow Workstation. The plate was incubated at room temperature for 10 minutes before the luminescence signal was measured with a Perkin Elmer Envision Plate Reader.
The percent cytotoxicity was determined by calcein AM conversion to fluorescent product. The average fluorescent signal from the DMSO control wells were defined as 100% nontoxic. The individual fluorescent signal from testing compound treated well was divided by the average signal from DMSO control wells and then multiplied by 100% to get the percent viability. The percent anti-HCV replication activity was determined by the luminescence signal from the testing well compared to DMSO controls wells. The background signal was determined by the average luminescence signal from the HCV protease inhibitor treated wells and was subtracted from the signal from the testing wells as well as the DMSO control wells.
Where b is Hill's coefficient. See, for reference, Hill, A. V., The Possible Effects of the Aggregation of the Molecules of Hemoglobin on its Dissociation Curves, J. Physiol. 40: iv-vii. (1910).
% inhibition values at a specific concentration, for example 2 μM, can also be derived from the formula above.
The EC50's are presented as a % inhibition.

cyclophilin A = cyclophilin A (Homo sapiens, UniProt P62937); experiment: Cyclophilin A TR-FRET competitive binding assay; details: inhibition of cyclophilin binding; 5 nM CypA, 150 nM CsA-Cy5
Chain of cyclophilin A (P62937 whole entry, species assumed): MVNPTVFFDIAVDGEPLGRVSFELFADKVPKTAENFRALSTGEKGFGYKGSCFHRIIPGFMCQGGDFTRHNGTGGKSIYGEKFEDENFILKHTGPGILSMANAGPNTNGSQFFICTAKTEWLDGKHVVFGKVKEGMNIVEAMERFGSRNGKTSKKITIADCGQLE
Procedure: Cyclophilin A TR-FRET Competitive Binding Assay
Inhibitor potency was measured using a competitive binding assay with a time-resolved fluorescence resonance energy transfer (TR-FRET) readout. […] The total volume of the assay solution was 100 μL. […] An IC50 value was calculated using a four-parameter logistic fit.

Row | SMILES | EC50 [2] [nM] | inhibition at 1 µM [2] [%] | IC50 (cyclophilin A) [nM] | also measured
1 | CCO[C@@H]1CC/C=C/c2cccc(c2)COC(=O)[C@@H]2CCCN(N2)C(=O)[C@H](Cc2cccc(O[Si](C)(C)C(C)(C)C)c2)NC(=O)[C@H](C(C)C)NC(=O)[C@@H]1C |  |  |  | ring closure, isolated yield ([1]; from C=CCC[C@@H](OCC)[C@@H](C)C(=O)N[C@H](C(=O)N[C@@H](Cc1cccc(O[Si](C)(C)C(C)(C)C)c1)C(=O)N1CCC[C@@H](C(=O)OCc2cccc(C=C)c2)N1)C(C)C, Hoveyda-Grubbs II, DCE, 2.53 mM, 83.0 °C, 1.5 h): 66%
2 | CO[C@@H]1CC/C=C/CCCCOC(=O)[C@@H]2CCCN(N2)C(=O)[C@H](Cc2cccc(O[Si](C)(C)C(C)(C)C)c2)NC(=O)[C@H](C(C)C)NC(=O)[C@@H]1C |  |  |  | ring closure, isolated yield ([1]; from C=CCCCCOC(=O)[C@@H]1CCCN(C(=O)[C@H](Cc2cccc(O[Si](C)(C)C(C)(C)C)c2)NC(=O)[C@@H](NC(=O)[C@H](C)[C@@H](CCC=C)OC)C(C)C)N1, Grubbs II, DCE, 3.02 mM, 83.0 °C, 3.0 h): 48%
3 | CO[C@@H]1CC/C=C/c2ccnc(c2)COC(=O)[C@@H]2CCCN(N2)C(=O)[C@H](Cc2cccc(O[Si](C)(C)C(C)(C)C)c2)NC(=O)[C@H](C(C)C)NC(=O)[C@@H]1C |  |  |  | ring closure, isolated yield ([1]; from C=CCC[C@@H](OC)[C@@H](C)C(=O)N[C@H](C(=O)N[C@@H](Cc1cccc(O[Si](C)(C)C(C)(C)C)c1)C(=O)N1CCC[C@@H](C(=O)OCc2cc(C=C)ccn2)N1)C(C)C, Hoveyda-Grubbs II, DCE, 2.69 mM, 80.0 °C, 3.0 h): 61%
4 | CO[C@@H]1CCC=Cc2ccc3c(c2)[C@@H](CC3)OC(=O)[C@@H]2CCCN(N2)C(=O)[C@H](Cc2cccc(O[Si](C)(C)C(C)(C)C)c2)NC(=O)[C@H](C(C)C)NC(=O)[C@@H]1C |  |  |  | ring closure, isolated yield ([1]; from C=CCC[C@@H](OC)[C@@H](C)C(=O)N[C@H](C(=O)N[C@@H](Cc1cccc(O[Si](C)(C)C(C)(C)C)c1)C(=O)N1CCC[C@@H](C(=O)O[C@@H]2CCc3ccc(C=C)cc32)N1)C(C)C, Hoveyda-Grubbs II (two portions), DCE, 3.16 mM, 83.0 °C, 6.0 h, 2 steps): 14%
5 | CO[C@@H]1CCC=Cc2cccc(c2)COC(=O)[C@@H]2CCCN(N2)C(=O)[C@H](Cc2cccc(O[Si](C)(C)C(C)(C)C)c2)NC(=O)[C@H](C(C)C)NC(=O)[C@@H]1C |  |  |  | ring closure, isolated yield ([1]; from C=CCC[C@@H](OC)[C@@H](C)C(=O)N[C@H](C(=O)N[C@@H](Cc1cccc(O[Si](C)(C)C(C)(C)C)c1)C(=O)N1CCC[C@@H](C(=O)OCc2cccc(C=C)c2)N1)C(C)C, Grubbs I, DCM, 3.0 mM, 40.0 °C, 16.0 h): 75%
6 | CO[C@@H]1CCC=Cc2cccc(c2)[C@@H](C)NC(=O)[C@@H]2CCCN(N2)C(=O)[C@H](Cc2cccc(O[Si](C)(C)C(C)(C)C)c2)NC(=O)[C@H](C(C)C)NC(=O)[C@@H]1C |  |  |  | ring closure, isolated yield ([1]; from C=CCC[C@@H](OC)[C@@H](C)C(=O)N[C@H](C(=O)N[C@@H](Cc1cccc(O[Si](C)(C)C(C)(C)C)c1)C(=O)N1CCC[C@@H](C(=O)N[C@H](C)c2cccc(C=C)c2)N1)C(C)C, Hoveyda-Grubbs II, DCE, 2.59 mM, 80.0 °C, 3.0 h): 22%
7 | CO[C@@H]1CCC=Cc2cccc(c2)[C@@H](C)OC(=O)[C@@H]2CCCN(N2)C(=O)[C@H](Cc2cccc(O[Si](C)(C)C(C)(C)C)c2)NC(=O)[C@H](C(C)C)NC(=O)[C@@H]1C |  |  |  | ring closure, isolated yield ([1]; from C=CCC[C@@H](OC)[C@@H](C)C(=O)N[C@H](C(=O)N[C@@H](Cc1cccc(O[Si](C)(C)C(C)(C)C)c1)C(=O)N1CCC[C@@H](C(=O)O[C@H](C)c2cccc(C=C)c2)N1)C(C)C, Hoveyda-Grubbs II, DCE, 2.68 mM, 83.0 °C, 3.0 h): 70%
8 | CO[C@@H]1[C@@H](C)[C@@H](OC)C=CC=CC[C@@H](C)OC(=O)[C@@H]2CCCN(N2)C(=O)[C@H](Cc2cccc(O[Si](C)(C)C(C)(C)C)c2)NC(=O)[C@H](C(C)C)NC(=O)[C@@H]1C |  |  |  | ring closure, isolated yield ([1]; from C=C/C=C\[C@H](OC)[C@H](C)[C@@H](OC)[C@@H](C)C(=O)N[C@H](C(=O)N[C@@H](Cc1cccc(O[Si](C)(C)C(C)(C)C)c1)C(=O)N1CCC[C@@H](C(=O)O[C@H](C)CC=C)N1)C(C)C, Grubbs I (two portions), DCM, 2.0 mM, 40.0 °C, 42.0 h): 42%
9 | COc1ccc(C[C@@H]2NC(=O)[C@H](C)[C@H](OC)[C@@H](C)[C@@H](OC)C=CC=CCCOC(=O)[C@@H]3CCCN(N3)C(=O)[C@H](Cc3cccc(O[Si](C)(C)C(C)(C)C)c3)NC2=O)cc1 |  |  |  | ring closure, isolated yield ([1]; from C=C/C=C\[C@H](OC)[C@H](C)[C@@H](OC)[C@@H](C)C(=O)N[C@@H](Cc1ccc(OC)cc1)C(=O)N[C@@H](Cc1cccc(O[Si](C)(C)C(C)(C)C)c1)C(=O)N1CCC[C@@H](C(=O)OCCC=C)N1, Grubbs I, DCM, 2.52 mM, 40.0 °C, 24.0 h): 34%
10 | COc1ccc(C[C@@H]2NC(=O)[C@H](C)[C@H](OC)[C@@H](C)[C@@H](OC)/C=C/C=C/CCOC(=O)[C@@H]3CCCN(N3)C(=O)[C@H](Cc3cccc(O)c3)NC2=O)cc1 [Compound 21, (13 E,15E)-(3S,6S,9R,10R,11S,12S,21S)-3-(3-Hydroxy-benzyl)-10,12-dimethoxy-6-(4-methoxy-benzyl)-9,11-dimethyl-19-oxa-1,4,7,25-tetraazabicyclo[19.3.1]pentacosa-13,15-diene-2,5,8,20-tetraone] | 1100 to 10000 | 18 | 101 to 1000 | 
11 | CO[C@@H]1CC/C=C/c2cccc(c2)[C@@H](C)OC(=O)[C@@H]2CCCN(N2)C(=O)[C@H](Cc2cccc(O)c2)NC(=O)[C@H](C(C)C)NC(=O)C1 [Compound 22, (E)-(2R,5S,11S,14S,18R)-11-(3-Hydroxy-benzyl)-14-isopropyl-18-methoxy-2-methyl-3-oxa-9,12,15,28-tetraaza-tricyclo[21.3.1.1*5,9*]octacosa-1(26),21,23(27),24-tetraene-4,10,13,16-tetraone] | < 1000 | 70 | < 100 | 
12 | CO[C@@H]1CC/C=C/CCCCOC(=O)[C@@H]2CCCN(N2)C(=O)[C@H](Cc2cccc(O)c2)NC(=O)[C@H](C(C)C)NC(=O)[C@@H]1C [Compound 23, (E)-(3S,6S,9R,10R,21S)-3-(3-Hydroxy-benzyl)-6-isopropyl-10-methoxy-9-methyl-19-oxa-1,4,7,25-tetraaza-bicyclo[19.3.1]pentacos-13-ene-2,5,8,20-tetraone] | < 1000 | 41 | 101 to 1000 | 
13 | CCO[C@@H]1CC/C=C/c2cccc(c2)COC(=O)[C@@H]2CCCN(N2)C(=O)[C@H](Cc2cccc(O)c2)NC(=O)[C@H](C(C)C)NC(=O)[C@@H]1C [Compound 24, (E)-(5S,11S,14S,17R,18R)-18-Ethoxy-11-(3-hydroxy-benzyl)-14-isopropyl-17-methyl-3-oxa-9,12,15,28-tetraaza-tricyclo[21.3.1.1*5,9*]octacosa-1(26),21,23(27),24-tetraene-4,10,13,16-tetraone] | < 1000 | 65 | < 100 | 
14 | CO[C@@H]1[C@@H](C)[C@@H](OC)CCc2cccc(c2)CNC(=O)[C@@H]2CCCN(N2)C(=O)[C@H](Cc2cccc(O)c2)NC(=O)[C@H](C(C)C)NC(=O)[C@@H]1C [Compound 25, (5S,11S,14S,17R,18R,19S,20S)-11-(3-Hydroxy-benzyl)-14-isopropyl-18,20-dimethoxy-17,19-dimethyl-3,9,12,15,28-pentaaza-tricyclo[21.3.1.1*5,9*]octacosa-1(27),23,25-triene-4,10,13,16-tetraone] | 1100 to 10000 | 34 | 101 to 1000 | 
15 | CO[C@@H]1CC/C=C/C2=CC=C(COC(=O)[C@@H]3CCCN(N3)C(=O)[C@H](Cc3cccc(O)c3)NC(=O)[C@H](C(C)C)NC(=O)[C@@H]1C)S2 [Compound 26, (E)-(1S,13R,14R,17S,20S)-20-(3-Hydroxy-benzyl)-17-isopropyl-13-methoxy-14-methyl-3-oxa-27-thia-16,19,22,26-tetraaza-tricyclo[20.3.1.1*5,8*]heptacosa-5,7,9-triene-2,15,18,21-tetraone] | 10100 to 100000 | 9 | 101 to 1000 | 

Source: patent US8933015B2, “Macrocyclic inhibitors of flaviviridae viruses” (Gilead Sciences, Inc., priority 2010, dated 2015)
